{
  "source": "patent US20040119048A1",
  "about": "“Process of making aqueous perborate bleach composition” (Unilever Home & Personal Care USA, Divison of Conopco, Inc., priority 2002, published 2004)",
  "assay": "Iterative determination of perborate solubility in water and polyol/water (visual appearance, pH)",
  "format": "physicochemical",
  "protocol": "An iterative process was used to determine the extent of perborate solubilty in water and polyol/water. 1.5 g of Na perborate monohydrate was added either to 100 g of water (Table 1A) or to 90 g water and 10 g sorbitol (70% active) (Table 1B). The mixture was stirred until all of sodium perborate monohydrate was dissolved. A 0.5 g aliquot of sodium perborate monohydrate was then added to the solution while stirring and visually monitored to see if all the added sodium perborate monohydrate dissolves. If the aliquot dissolved, another 0.5 g of sodium perborate monohydrate would be added. This procedure was continued until the added perborate no longer appeared to dissolve.",
  "data": [
    {"smiles": "O.O=BO[O-].[Na+]", "note": "[Sodium Perborate monohydrate, sodium perborate monohydrate]", "values": [
      {"measurement": "solubility in water in the presence of polyol", "setting": "90 g water + 10 g sorbitol (70%)", "value": "up to 8.5 g"},
      {"measurement": "increase of perborate solubility by polyol", "setting": "aqueous environment, with polyol vs without", "value": "about 400%"}
    ]}
  ]
}
